Experimental data as given in patent US8940730B2, “Methods and compositions of treating a Flaviviridae family viral infection” (The Board of Trustees of the Leland Stanford Junior …, priority 2007, dated 2015).

Key:
[1] = test system: HCV genotype 2a infectious clone; assay: HCV genotype 2a infectious clone assay (Renilla luciferase); format: cell-based; conditions: Hepatitis C virus, read-out: 2a (% activity @ 5 μM), 5 μM; % replication activity of control with no test compound
Experimental: The assays in parts A and B were used to generate the genotype 1b inhibitory activity and related cell toxicity (viability) data supported herein. This assay has been used to generate the genotype 2a inhibitory activity data supported herein.
(§1) 1) Wash cells once with PBS, trypsinize. […] Mix twice by pipeting. […] Make a common stock from all tubes. […] 15) Incubate for 24 hr before treatment.
(§2) 3) Repeat daily for 2 more days.

Huh7.5 cells = conditions: human, 3 days
Experimental: as §1, §2
1) Alamar blue assay—a) Include medium for background subtraction (and also for seeing change in color easily). b) Aspirate medium. c) Make a stock of medium plus 10% Alamar blue. Total volume per well is 100 μl. d) Incubate for 2-2.5 hrs at 37° C. (or until there is a color change). c) Read plates at flex station.

Huh7 cell line = assay: MTT assay for HCV replicon reporter cell lines (cell toxicity); format: cell-based; conditions: Homo sapiens, Huh-7; cell toxicity, MTT, top concentration 25 μM; read-out: Cell Viability EC50
hERG channel = molecular target: T1, hERG channel (Homo sapiens, UniProt Q12809); assay: HERG channel assay (whole cell patch clamp, CHO cells); format: cell-based; conditions: CHO cells expressing hERG, tail current
T1 construct: host or cells: CHO (Chinese Hamster Ovary), stably transfected
Experimental: Solutions: For electrophysiological recordings, the following solutions were used. External Solution: 2 mM CaCl2; 2 mM MgCl2; 4 mM KCl; 150 mM NaCl; 10 mM Glucose; 10 mM HEPES; 310-320 mOsm; pH 7.4 (adjusted with 1M NaOH). Internal Solution: 140 mM KCl; 10 mM MgCl2; 6 mM EGTA; 5 mM HEPESNa; […]; 300-320 mOsm; pH 7.25 (adjusted with 1M KOH).
Next, 1 μM cisapride (positive control) was added.
Data Analysis: Data analysis was performed using DataXpress (Axon Instruments), Clampfit (Axon Instruments) and Origin (Originlab Corporation) software.
In addition, activity against hERG potassium channel was tested on representative compounds. […] Compounds having a structure similar to that of EBP288 (compounds that contain, in R3, an N-attached heterocycle where substitutions adjacent to the nitrogen are small) should have a similar activity in this assay. […] Compounds having a structure similar to the aforementioned compound (compounds that contain, in R3, a C-attached heterocycle where heteroatom is acylated N) should have a similar activity in this assay. Generally, compounds that show no or only low activity in the hERG assay are preferred.

HCV 1b RNA replicon = assay: Luciferase assay for HCV genotype 1b replicon reporter cell lines; conditions: Hepatitis C virus, Huh-7, 48 h, read-out: 1b EC50, 1b replicon, Huh7, 48 hours, top concentration 25 μM

T1 sequence (Q12809 whole entry): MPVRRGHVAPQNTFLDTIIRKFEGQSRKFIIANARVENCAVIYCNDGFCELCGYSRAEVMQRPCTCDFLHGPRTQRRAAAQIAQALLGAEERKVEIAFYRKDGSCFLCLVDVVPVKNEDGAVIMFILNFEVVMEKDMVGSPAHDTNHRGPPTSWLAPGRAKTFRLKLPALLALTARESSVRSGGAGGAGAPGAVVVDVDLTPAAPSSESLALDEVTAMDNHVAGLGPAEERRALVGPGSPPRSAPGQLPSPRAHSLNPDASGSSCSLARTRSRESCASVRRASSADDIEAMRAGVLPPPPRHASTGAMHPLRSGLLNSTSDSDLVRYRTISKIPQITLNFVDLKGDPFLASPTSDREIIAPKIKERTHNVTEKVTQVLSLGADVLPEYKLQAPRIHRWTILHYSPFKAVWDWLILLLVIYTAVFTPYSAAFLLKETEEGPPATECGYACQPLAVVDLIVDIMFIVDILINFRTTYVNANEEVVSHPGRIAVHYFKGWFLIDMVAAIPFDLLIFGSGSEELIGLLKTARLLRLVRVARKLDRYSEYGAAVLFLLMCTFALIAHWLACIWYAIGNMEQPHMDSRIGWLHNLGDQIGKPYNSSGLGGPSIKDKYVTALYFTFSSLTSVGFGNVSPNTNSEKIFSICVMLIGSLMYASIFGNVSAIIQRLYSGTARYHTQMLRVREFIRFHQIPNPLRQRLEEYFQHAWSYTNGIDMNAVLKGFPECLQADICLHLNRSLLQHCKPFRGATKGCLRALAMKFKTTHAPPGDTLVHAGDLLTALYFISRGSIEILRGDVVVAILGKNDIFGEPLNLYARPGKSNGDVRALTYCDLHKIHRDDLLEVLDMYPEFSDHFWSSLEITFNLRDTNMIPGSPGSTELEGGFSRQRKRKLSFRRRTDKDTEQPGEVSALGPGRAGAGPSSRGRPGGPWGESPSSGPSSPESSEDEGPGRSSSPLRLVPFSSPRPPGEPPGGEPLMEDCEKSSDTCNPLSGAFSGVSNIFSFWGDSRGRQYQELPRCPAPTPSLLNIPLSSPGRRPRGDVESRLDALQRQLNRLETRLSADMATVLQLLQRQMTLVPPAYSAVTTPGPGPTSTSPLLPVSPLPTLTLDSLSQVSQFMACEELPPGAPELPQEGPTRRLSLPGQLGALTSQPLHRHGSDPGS

SMILES	activity at 5 µM [1] [%]	2a cell viability (@ 5 μM) (Huh7.5 cells) [%]	EC50 (Huh7 cell line) [µM]	IC50 (hERG channel) [µM]	EC50 (HCV 1b RNA replicon) [µM]
Cc1ccc2c(c1)c(OCCN1CCCC1)nn2Cc1ccccc1 [EBP181]	58	100	–	–	–
Cc1ccc2c(c1)c(OCCN(C)C)nn2Cc1ccccc1 [EBP182]	82	100	–	–	–
c1ccc(Cn2nc(OCCCN3CCCCC3)c3ccccc32)cc1 [EBP192]	50	88	–	–	–
Clc1ccc(Cn2nc(OCCCN3CCCC3)c3ccccc32)cc1 [EBP288]	24	89	> 25	1	3.7
COc1ccc(Cn2nc(OCCCN3CCCC3)c3ccccc32)cc1 [EBP327]	89	98	–	–	–
COc1ccc(Cn2nc(OCCCN3CCCCC3)c3ccccc32)cc1 [EBP328]	71	100	–	–	–
COc1ccc(COc2nn(Cc3ccc(OC)cc3)c3ccccc23)cc1 [EBP330]	75	100	–	–	–
CN(C)CCOc1nn(CCc2ccc(Cl)cc2)c2ccccc12 [EBP332]	66	100	–	–	–
Clc1ccc(Cn2nc(OCCN3CCCC3)c3ccccc32)cc1 [EBP333]	56	97	–	–	–
Clc1cccc(Cn2nc(OCCN3CCCC3)c3ccccc32)c1 [EBP334]	69	100	–	–	–
Cc1ccc(Cn2nc(OCCN3CCCC3)c3ccccc32)cc1 [EBP335]	73	10	–	–	–
CC(C)c1ccc(Cn2nc(OCCN3CCCC3)c3ccccc32)cc1 [EBP336]	38	95	> 25	–	5.1
COC(=O)c1cccc(Cn2nc(OCCN3CCCC3)c3ccccc32)c1 [EBP338]	79	100	–	–	–
c1ccc2c(c1)c(OCCN1CCCC1)nn2CC1CCCCC1 [EBP339]	69	100	–	–	–
CC(C)(C)OC(=O)N1CCC(Cn2nc(OCCN3CCCC3)c3ccccc32)CC1 [EBP340]	62	98	–	–	–
c1cncc(Cn2nc(OCCN3CCCC3)c3ccccc32)c1 [EBP356]	68	95	–	–	–
c1ccc2c(c1)c(OCCN1CCCC1)nn2Cc1ccncc1 [EBP357]	77	94	–	–	–
c1ccc2c(c1)c(OCCN1CCCC1)nn2CC1CCCNC1 (stereo not shown) [EBP360]	80	92	–	–	–
OC[C@@H]1CCCN1CCCOc1nn(Cc2ccc(Cl)cc2)c2ccccc12 [EBP383]	35	100	> 25	0.9	4.2
NC(=O)[C@@H]1CCCN1CCCOc1nn(Cc2ccc(Cl)cc2)c2ccccc12 [EBP385]	75	100	–	–	–

SMILES	activity at 5 µM [1] [%]	2a cell viability (@ 5 μM) (Huh7.5 cells) [%]	EC50 (Huh7 cell line) [µM]	IC50 (hERG channel) [µM]	EC50 (HCV 1b RNA replicon) [µM]
Clc1ccc(Cn2nc(OCCCN3CCCC3c3ccccc3)c3ccccc32)cc1 (stereo not shown) [EBP387]	35	100	> 25	3.3	6.4
C[C@H]1CCCN1CCCOc1nn(Cc2ccc(Cl)cc2)c2ccccc12 [EBP391]	35	100	> 25	0.23	4
O[C@@H]1CCN(CCCOc2nn(Cc3ccc(Cl)cc3)c3ccccc23)C1 [EBP393]	42	100	> 25	0.9	4.5
Clc1ccc(Cn2nc(OCCCN3CCC[C@H]3CN3CCCC3)c3ccccc32)cc1 [EBP395]	41	89	> 25	2	4.4
Clc1ccc(Cn2nc(OCCCN3CCCCCC3)c3ccccc32)cc1 [EBP397]	14	100	> 25	–	2.8
O[C@H]1CCN(CCOc2nn(Cc3ccc(Cl)cc3)c3ccccc23)C1 [EBP400]	84	100	–	–	–
Clc1ccc(Cn2nc(OCCN3CCC[C@H]3CN3CCCC3)c3ccccc32)cc1 [EBP403]	50	97	> 25	–	3.8
C[C@@H](COc1nn(Cc2ccc(Cl)cc2)c2ccccc12)CN1CCC[C@H]1CO [EBP449]	83	99	–	–	–
C[C@H](COc1nn(Cc2ccc(Cl)cc2)c2ccccc12)CN1CCC[C@H]1CO [EBP454]	69	93	–	–	–
OCC1CCCCN1CCCOc1nn(Cc2ccc(Cl)cc2)c2ccc(Cl)cc12 (stereo not shown) [EBP503]	36	86	> 25	–	7.2
COC(=O)C1CCCCN1CCCOc1nn(Cc2ccc(Cl)cc2)c2ccccc12 (stereo not shown) [EBP505]	87	94	–	–	–
COC(=O)[C@@H]1CC[C@H](O)N1CCCOc1nn(Cc2ccc(Cl)cc2)c2ccccc12 [EBP507]	87	90	–	–	–
O=C(O)C[C@@H]1CCCN1CCCOc1nn(Cc2ccc(Cl)cc2)c2ccccc12 [EBP508]	77	100	–	–	–
CCOC(=O)[C@@H]1CCCN1CCCOc1nn(Cc2ccc(Cl)cc2)c2ccccc12 [EBP512]	78	100	–	–	–
O[C@H]1CC[C@H](O)N1CCCOc1nn(Cc2ccc(Cl)cc2)c2ccccc12 [EBP515]	–	–	> 25	2.6	4.9
OC[C@H]1CCCN1CCCOc1nn(Cc2ccc(Cl)cc2)c2ccccc12 [EBP516]	–	–	> 25	0.81	4.7
Clc1ccc(Cn2nc(OCCCN3CCC[C@H]3CNc3ccccc3)c3ccccc32)cc1 [EBP524]	–	–	> 25	2.6	8.3
CCN(CC)c1ccc2c(c1)c(OCCCN1CCCC1)nn2Cc1ccc(Cl)cc1 [EBP534]	–	–	> 25	2.8	3.3
Clc1ccc(Cn2nc(OCC3CCNCC3)c3cc(Cl)ccc32)cc1 [EBP640]	–	–	> 25	5.3	5
